Data taken from PubChem BioAssay AID1963850 (Molecular Pharmacology Branch, DTP, NCI, 2024).

Test system: 192522-019-R-J2-PDC complex tumor spheroid viability
Test: Anticancer human tumor 192522-019-R-J2-PDC patient-derived colon adenocarcinoma cell line growth inhibition [POLQ]
Details: for IC50: curve of first compound; for viability, T/C: stronger effect = lower value
In short: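 Complex spheroid viability model combining PDC tumour cells with endothelial (HUVEC) and MSC stromal cells. Novobiocin, ART-558 or RP6685 were tested singly and in combination with standard and investigational anticancer drugs. Each was titrated in half-log steps from near clinical Cmax, or from 10 microM where Cmax was unknown.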
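Also: spheroids exposed to drugs for seven days before reading.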
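For viability, T/C in this document: 100% = DMSO vehicle control viability in luminescence.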

CC(=O)O[C@H]1C(=O)[C@@]2(C)[C@H]([C@H](OC(=O)c3ccccc3)[C@]3(O)C[C@H](OC(=O)[C@H](O)[C@@H](NC(=O)c4ccccc4)c4ccccc4)C(C)=C1C3(C)C)[C@]1(OC(C)=O)CO[C@@H]1C[C@@H]2O + Nc1ccc(C#CCN(C(=O)Cc2ncc(C(F)(F)F)cc2C(F)(F)F)c2ccc(F)cc2)nn1
IC50 (second compound 0.0316 µM): > 3 µM | IC50 (second compound 0.1 µM): > 3 µM | IC50 (second compound 0.316 µM): > 3 µM | IC50 (second compound 1 µM): > 3 µM | IC50 (second compound 3.16 µM): > 3 µM | IC50 (second compound 10 µM): > 3 µM | viability, T/C (second compound 0.0316 µM, first compound 0.00949 µM): 95.6% | viability, T/C (second compound 0.0316 µM, first compound 0.03 µM): 65.1% | viability, T/C (second compound 0.0316 µM, first compound 0.0949 µM): 50.2% | viability, T/C (second compound 0.0316 µM, first compound 0.3 µM): 57% | viability, T/C (second compound 0.0316 µM, first compound 0.949 µM): 56.9% | viability, T/C (second compound 0.0316 µM, first compound 3 µM): 60.2% | viability, T/C (second compound 0.1 µM, first compound 0.00949 µM): 95.3% | viability, T/C (second compound 0.1 µM, first compound 0.03 µM): 63.3% | viability, T/C (second compound 0.1 µM, first compound 0.0949 µM): 55.4% | viability, T/C (second compound 0.1 µM, first compound 0.3 µM): 54.8% | viability, T/C (second compound 0.1 µM, first compound 0.949 µM): 61.2% | viability, T/C (second compound 0.1 µM, first compound 3 µM): 50.2% | viability, T/C (second compound 0.316 µM, first compound 0.00949 µM): 88.7% | viability, T/C (second compound 0.316 µM, first compound 0.03 µM): 69.6% | viability, T/C (second compound 0.316 µM, first compound 0.0949 µM): 54.2% | viability, T/C (second compound 0.316 µM, first compound 0.3 µM): 58.2% | viability, T/C (second compound 0.316 µM, first compound 0.949 µM): 57.9% | viability, T/C (second compound 0.316 µM, first compound 3 µM): 54.9% | viability, T/C (second compound 1 µM, first compound 0.00949 µM): 86.3% | viability, T/C (second compound 1 µM, first compound 0.03 µM): 62.6% | viability, T/C (second compound 1 µM, first compound 0.0949 µM): 53.7% | viability, T/C (second compound 1 µM, first compound 0.3 µM): 51.3% | viability, T/C (second compound 1 µM, first compound 0.949 µM): 57.4% | viability, T/C (second compound 1 µM, first compound 3 µM): 50.9% | viability, T/C (second compound 3.16 µM, first compound 0.00949 µM): 85.5% | viability, T/C (second compound 3.16 µM, first compound 0.03 µM): 65.7% | viability, T/C (second compound 3.16 µM, first compound 0.0949 µM): 55.8% | viability, T/C (second compound 3.16 µM, first compound 0.3 µM): 54.6% | viability, T/C (second compound 3.16 µM, first compound 0.949 µM): 59.2% | viability, T/C (second compound 3.16 µM, first compound 3 µM): 56% | viability, T/C (second compound 10 µM, first compound 0.00949 µM): 80% | viability, T/C (second compound 10 µM, first compound 0.03 µM): 66.3% | viability, T/C (second compound 10 µM, first compound 0.0949 µM): 60.2% | viability, T/C (second compound 10 µM, first compound 0.3 µM): 61.2% | viability, T/C (second compound 10 µM, first compound 0.949 µM): 60.9% | viability, T/C (second compound 10 µM, first compound 3 µM): 56.5%
